In US20240050571A1, “CARBORANE HYDROXAMIC ACID MATRIX METALLOPROTEINASE INHIBITORS AND AGENTS FOR BORON NEUTRON CAPTURE THERAPY” (LOYOLA UNIVERSITY OF CHICAGO, priority 2018, published 2024) one finds IC50 data, which are given here for one molecule.

One assay has as its target MMP-9 (Homo sapiens (Human), UniProt P14780). The assay is described as follows: Assay for inhibition of MMP (fluorescence), MMP-9. As to conditions: read-out: MMP-9 IC50.
The next assay addresses MMP-2 (Homo sapiens (Human), UniProt P08253). As to conditions: read-out: MMP-2 IC50.

Chain of MMP-9 (P14780 107-707 limits assumed): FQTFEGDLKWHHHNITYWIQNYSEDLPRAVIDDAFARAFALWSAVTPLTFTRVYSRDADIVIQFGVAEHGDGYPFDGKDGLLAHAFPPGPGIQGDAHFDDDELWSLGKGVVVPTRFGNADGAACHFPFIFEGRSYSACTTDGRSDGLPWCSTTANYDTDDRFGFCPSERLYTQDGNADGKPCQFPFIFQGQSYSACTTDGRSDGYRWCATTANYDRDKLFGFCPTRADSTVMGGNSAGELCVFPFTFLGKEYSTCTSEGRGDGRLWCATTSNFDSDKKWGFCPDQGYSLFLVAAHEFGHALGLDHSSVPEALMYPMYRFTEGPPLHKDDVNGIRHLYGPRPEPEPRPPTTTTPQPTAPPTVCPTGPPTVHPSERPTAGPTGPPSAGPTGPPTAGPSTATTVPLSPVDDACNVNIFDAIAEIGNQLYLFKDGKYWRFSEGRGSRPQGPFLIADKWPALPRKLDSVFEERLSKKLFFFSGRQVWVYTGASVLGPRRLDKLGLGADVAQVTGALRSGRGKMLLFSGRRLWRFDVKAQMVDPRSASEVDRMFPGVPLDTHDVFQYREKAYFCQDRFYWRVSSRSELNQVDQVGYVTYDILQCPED
Chain of MMP-2 (P08253 110-660 limits assumed): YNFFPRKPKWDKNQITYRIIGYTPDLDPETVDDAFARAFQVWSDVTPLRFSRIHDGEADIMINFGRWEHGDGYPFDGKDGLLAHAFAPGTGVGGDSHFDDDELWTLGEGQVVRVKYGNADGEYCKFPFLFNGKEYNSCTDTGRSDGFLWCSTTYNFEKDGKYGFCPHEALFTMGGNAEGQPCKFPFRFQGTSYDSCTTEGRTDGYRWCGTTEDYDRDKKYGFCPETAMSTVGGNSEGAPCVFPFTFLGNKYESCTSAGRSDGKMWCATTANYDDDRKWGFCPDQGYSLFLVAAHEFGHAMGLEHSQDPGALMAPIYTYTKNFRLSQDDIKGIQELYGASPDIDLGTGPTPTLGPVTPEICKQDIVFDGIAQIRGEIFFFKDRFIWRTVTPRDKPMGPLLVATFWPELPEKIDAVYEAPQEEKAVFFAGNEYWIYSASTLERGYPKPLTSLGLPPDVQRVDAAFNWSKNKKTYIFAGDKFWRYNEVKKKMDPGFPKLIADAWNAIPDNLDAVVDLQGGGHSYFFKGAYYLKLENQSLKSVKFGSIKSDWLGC

On to `COc1ccc(S(=O)(=O)N(CC(=O)NO)CC(C)C)cc1` [NNGH, N-Isobutyl-N-(4-methoxyphenylsulfonyl)glycyl hydroxamic acid], for which the IC50 on MMP-9 was found to be 5 nM; on MMP-2 it was 2.7 nM.
